Experimental findings from patent US8399497B2, “Thiazole derivatives and use thereof” (Merck Serono SA, priority 2005, dated 2013) are described below.

The term IC50 denotes the concentration that gives 50% inhibition.

In assay [1] the target is Human recombinant GST-PI3Kγ (Homo sapiens, UniProt P48736). The assay is described as follows: High throughput PI3K lipid kinase assay (SPA, neomycin-coated beads). The class given is biochemical. An excerpt:
a) High Throughput PI3K Lipid Kinase Assay (Binding Assay):
The efficacy of compounds of the invention in inhibiting the PI3K induced-lipid phosphorylation may be tested in the following binding assay.
The assay combines the scintillation proximity assay technology (SPA, Amersham) with the capacity of neomycin (a polycationic antibiotic) to bind phospholipids with high affinity and specificity. The Scintillation Proximity Assay is based on the properties of weakly emitting isotopes (such as ^3H, ^125I, ^33P). Coating SPA beads with neomycin allows the detection of phosphorylated lipid substrates after incubation with recombinant PI3K and radioactive ATP in the same well, by capturing the radioactive phospholipids to the SPA beads through their specific binding to neomycin.
To a 384 wells MTP containing 5 μl of the test compound of Formula (I) (solubilized in 6% DMSO; to yield a concentration of 100, 30, 10, 3, 1, 0.3, 0.1, 0.03, 0.01, 01 μM of the test compound), the following assay components are added. 1) 5 μl (58 ng) of Human recombinant GST-PI3Kγ (in Hepes 40 mM, pH 7.4, DTT 1 mM and ethylenglycol 5%) 2) 10 μl of lipid micelles and 3) 10 μl of Kinase buffer ([^33P]γ-ATP 45 μM/60 nCi, MgCl2 30 mM, DTT 1 mM, β-Glycerophosphate 1 mM, Na3VO4 100 μM, Na Cholate 0.3%, in Hepes 40 mM, pH 7.4). After incubation at room temperature for 180 minutes, with gentle agitation, the reaction is stopped by addition of 60 μl of a solution containing 100 μg of neomycin-coated PVT SPA beads in PBS containing ATP 10 mM and EDTA 5 mM. The assay is further incubated at room temperature for 60 minutes with gentle agitation to allow binding of phospholipids to neomycin-SPA beads. After precipitation of the neomycin-coated PVT SPA beads for 5 minutes at 1500×g, radioactive PtdIns(3)P is quantified by scintillation counting in a Wallac MicroBeta™ plate counter.
The values indicated in Table II below refer to the IC50 (μM) with respect to PI3Kγ, i.e. the amount necessary to achieve 50% inhibition of said target. Said values show a considerable inhibitory potency of thiazole compounds with regard to PI3Kγ.

Assay [2] has as its system PI3K induced Akt/PKB phosphorylation in Raw 264-7 macrophages. Briefly: Cell based ELISA of Akt/PKB phosphorylation in macrophages after Complement 5a stimulation. The following applies: Mus musculus, RAW264.7, 5 min, 50 nM Complement 5a for 5 minutes, read-out: Cell Assay (P-Akt, Elisa) IC50. As to the method: b) Cell Based ELISA to Monitor PI3K Inhibition:
The efficacy of compounds of the invention in inhibiting the PI3K induced Akt/PKB phosphorylation may be tested in the following cell based assay.
Measurement of Akt/PKB phosphorylation in macrophages after stimulation with Complement 5a: Raw 264: Raw 264-7 macrophages (cultured in DMEM-F12 medium containing 10% Fetal Calf serum and antibiotics) are plated at 20,000 cells/well in a 96 MTP 24 h before cell stimulation. Prior to the stimulation with 50 nM of Complement 5a during 5 minutes, Cells are serum starved for 2 h, and pretreated with inhibitors for 20 minutes. After stimulation cells are fixed in 4% formaldehyde for 20 minutes and washed 3 times in PBS containing 1% Triton X-100 (PBS/Triton). Endogenous peroxidase is blocked by a 20 minutes incubation in 0.6% H2O2 and 0.1% Sodium Azide in PBS/Triton and washed 3 times in PBS/Triton. Cells are then blocked by 60 minutes incubation with 10% fetal calf serum in PBS/Triton. Next, phosphorylated Akt/PKB is detected by an overnight incubation at 4° C. with primary antibody (anti phospho Serine 473 Akt IHC, Cell Signaling) diluted 800-fold in PBS/Triton, containing 5% bovine serum albumin (BSA). After 3 washes in PBS/Triton, cells are incubated for 60 minutes with a peroxidase conjugated goat-anti-rabbit secondary antibody (1/400 dilution in PBS/Triton, containing 5% BSA), washed 3 times in PBS/Triton, and 2 times in PBS and further incubated in 100 μl of luminescent substrate reagent solution (Pierce) for 2 minutes, followed by the reading (1 s/well).
The values indicated in Table III below reflect the percentage of inhibition of AKT phoshorylation as compared to basal level. Said values show a clear effect of the thiazole compounds on the activation of AKT phosphorylation in macrophages.

In assay [3] the test system is Neutrophil recruitment. Briefly: Thioglycollate-induced peritoneal cavity cell recruitment model, neutrophils. The class given is in vivo, C3H mice. The following applies: 10 mg/kg orally, lavage 4 h after thioglycollate. The procedure: Thioglycollate-Induced Pertioneal Cavity Cell Recruitment Model
The in vivo efficacy of compounds of the invention in inhibiting the migration of leukocytes upon intraperitoneal challenge of thioglycollate may be tested with the following assay.
8-10 weeks old female C3H mice are fasted during 18 hours. 15 minutes prior the intraperitoneal injection of thioglycollate (1.5%, 40 ml/kg), the mice are treated orally with Thiazoles of Formula (I). Control mice receive CMC/Tween as vehicle (10 ml/kg). The mice are then sacrificed by CO2 inhalation and the peritoneal cavity is washed two times with 5 ml of ice-cold PBS/1 mM EDTA. The lavages are done 4 hours or 48 hours after thioglycollate challenge to evaluate neutrophils or macrophages recruitment, respectively. The white blood cells (neutrophils, lymphocytes or macrophages) are counted using a Beckman Coulter® A ^cT 5diff™. Dexamethasone is used as reference drug.

Human recombinant GST-PI3Kγ, sequence (P48736 whole entry): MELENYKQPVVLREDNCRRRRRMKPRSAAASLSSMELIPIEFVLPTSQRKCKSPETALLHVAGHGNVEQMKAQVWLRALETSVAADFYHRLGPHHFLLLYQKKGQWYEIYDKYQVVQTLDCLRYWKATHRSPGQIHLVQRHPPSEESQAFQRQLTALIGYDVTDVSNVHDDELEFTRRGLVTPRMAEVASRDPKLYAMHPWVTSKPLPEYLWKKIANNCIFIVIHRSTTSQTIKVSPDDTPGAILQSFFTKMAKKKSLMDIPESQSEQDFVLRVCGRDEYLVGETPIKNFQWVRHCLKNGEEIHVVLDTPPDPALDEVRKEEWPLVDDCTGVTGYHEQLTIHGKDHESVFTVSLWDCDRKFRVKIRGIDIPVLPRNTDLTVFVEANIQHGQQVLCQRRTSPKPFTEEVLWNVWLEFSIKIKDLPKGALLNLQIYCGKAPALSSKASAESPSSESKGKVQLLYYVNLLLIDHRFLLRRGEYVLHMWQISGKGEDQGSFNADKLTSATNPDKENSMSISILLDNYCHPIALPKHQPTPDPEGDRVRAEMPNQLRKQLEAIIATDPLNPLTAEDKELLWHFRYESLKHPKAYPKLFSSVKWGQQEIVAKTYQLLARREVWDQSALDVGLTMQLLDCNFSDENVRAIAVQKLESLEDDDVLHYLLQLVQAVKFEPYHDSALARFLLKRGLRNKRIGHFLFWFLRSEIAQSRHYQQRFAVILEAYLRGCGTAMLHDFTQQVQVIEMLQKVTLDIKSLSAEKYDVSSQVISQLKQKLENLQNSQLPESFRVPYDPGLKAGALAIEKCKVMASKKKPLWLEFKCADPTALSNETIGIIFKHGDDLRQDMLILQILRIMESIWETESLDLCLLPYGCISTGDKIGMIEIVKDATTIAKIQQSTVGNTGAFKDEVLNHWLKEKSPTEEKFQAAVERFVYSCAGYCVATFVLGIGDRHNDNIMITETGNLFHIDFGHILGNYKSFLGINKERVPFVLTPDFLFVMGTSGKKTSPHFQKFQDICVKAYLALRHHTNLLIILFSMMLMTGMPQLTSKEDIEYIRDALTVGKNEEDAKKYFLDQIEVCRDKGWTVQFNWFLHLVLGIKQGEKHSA

For `C#CCNS(=O)(=O)c1ccc(-c2sc(NC(C)=O)nc2C)s1` [Example 1, N-(4-methyl-5-{5-[(prop-2-yn-1-ylamino)sulfonyl]-2-thienyl}-1,3-thiazol-2-yl)acetamide], the values for the IC50 in assay [1] and in assay [2] were 119 nM and 660 nM, respectively.

For the compound `CC(=O)Nc1nc(C)c(-c2ccc(S(=O)(=O)N3CCN(C(C)=O)CC3)s2)s1` [Example 2, N-(5-{5-[(4-acetylpiperazin-1-yl)sulfonyl]-2-thienyl}-4-methyl-1,3-thiazol-2-yl)acetamide], the IC50 in assay [1] was determined as 396 nM.

On to `CC(=O)Nc1nc(C)c(-c2ccc(S(=O)(=O)NC3CCN(C)CC3)s2)s1` [Example 4, N-[4-methyl-5-(5-{[(1-methylpiperidin-4-yl)amino]sulfonyl}-2-thienyl)-1,3-thiazol-2-yl]acetamide], for which the IC50 in assay [1] was determined as 298 nM.

For `CC(=O)Nc1nc(C)c(-c2ccc(S(=O)(=O)N(C)CCN(C)C)s2)s1` [Example 5, N-[5-(5-{[[2-(dimethylamino)ethyl](methyl)amino]sulfonyl}-2-thienyl)-4-methyl-1,3-thiazol-2-yl]acetamide], the IC50 in assay [1] is 20 nM.

For the compound `COC(=O)CCCC(=O)Nc1nc(C)c(-c2ccc(S(=O)(=O)NCCN3CCOCC3)s2)s1` [Example 7, methyl 5-{[4-methyl-5-(5-{[(2-morpholin-4-ylethyl)amino]sulfonyl}-2-thienyl)-1,3-thiazol-2-yl]amino}-5-oxopentanoate], in assay [1], the IC50 worked out at 1200 nM.

As for `CC(=O)Nc1nc(C)c(-c2ccc(S(=O)(=O)N3CCN(C)CC3)s2)s1` [Example 8, N-(4-methyl-5-{5-[(4-methylpiperazin-1-yl)sulfonyl]-2-thienyl}-1,3-thiazol-2-yl)acetamide], the IC50 in assay [1] is 170 nM.

Take `CC(=O)Nc1nc(C)c(-c2ccc(S(=O)(=O)NCCN3CCOCC3)s2)s1` [Example 9, N-[4-methyl-5-(5-{[(2-morpholin-4-ylethyl)amino]sulfonyl}-2-thienyl)-1,3-thiazol-2-yl]acetamide]: the results for the IC50 in assay [1] and in assay [2] were 158 nM and 850 nM, respectively. In addition, the “% inhibition of Neutrophil recruitment at 10 mg/kg after 4 h” value (“% inhibition of Neutrophil recruitment” for short) in assay [3] amounted to 48%.

Turning to `CC(=O)Nc1nc(C)c(-c2ccc(S(=O)(=O)NCCCN(C)C)s2)s1` [Example 10, N-{5-[5-({[3-(dimethylamino)propyl]amino}sulfonyl)-2-thienyl]-4-methyl-1,3-thiazol-2-yl}acetamide], the IC50 came to 289 nM in assay [1] and 1290 nM in assay [2]. Also, the “% inhibition of Neutrophil recruitment” value in assay [3] was 58%.

Turning to `CC(=O)Nc1nc(C)c(-c2ccc(S(=O)(=O)N3CCNCC3)s2)s1` [Example 11, N-{4-methyl-5-[5-(piperazin-1-ylsulfonyl)-2-thienyl]-1,3-thiazol-2-yl}acetamide], in assay [1], the IC50 came to 200 nM.

With `CNC(=O)CNS(=O)(=O)c1ccc(-c2sc(NC(C)=O)nc2C)s1` [Example 12, N~2~-({5-[2-(acetylamino)-4-methyl-1,3-thiazol-5-yl]-2-thienyl}sulfonyl)-N~1~-methylglycinamide], the IC50 in assay [1] was determined as 522 nM.

As to `CC(=O)NCCNS(=O)(=O)c1ccc(-c2sc(NC(C)=O)nc2C)s1` [Example 13, N-{5-[5-({[2-(acetylamino)ethyl]amino}sulfonyl)-2-thienyl]-4-methyl-1,3-thiazol-2-yl}acetamide], the IC50 in assay [1] is 109 nM.

Take `CC(=O)Nc1nc(C)c(-c2ccc(S(=O)(=O)NCC3COC(C)(C)O3)s2)s1` (stereo not drawn) [Example 14, N-{5-[5-({[(2,2-dimethyl-1,3-dioxolan-4-yl)methyl]amino}sulfonyl)-2-thienyl]-4-methyl-1,3-thiazol-2-yl}acetamide]: the IC50 in assay [1] was 198 nM.

Consider `COC(=O)[C@H](CO)NS(=O)(=O)c1ccc(-c2sc(NC(C)=O)nc2C)s1` [Example 15, methyl N-({5-[2-(acetylamino)-4-methyl-1,3-thiazol-5-yl]-2-thienyl}sulfonyl)serinate], for which the IC50 in assay [1] was 70 nM.

Regarding `CC(=O)Nc1nc(C)c(-c2ccc(S(=O)(=O)N[C@@H](CO)C(=O)O)s2)s1` [Example 16, N-({5-[2-(acetylamino)-4-methyl-1,3-thiazol-5-yl]-2-thienyl}sulfonyl)serine], the IC50 in assay [1] was found to be 373 nM.

Consider `CC(=O)Nc1nc(C)c(-c2ccc(S(=O)(=O)NCC(O)CO)s2)s1` (stereo not drawn) [Example 17, N-[5-(5-{[(2,3-dihydroxypropyl)amino]sulfonyl}-2-thienyl)-4-methyl-1,3-thiazol-2-yl]acetamide], for which, in assay [1], the IC50 amounted to 71 nM.

In the case of `CC(=O)Nc1nc(C)c(-c2ccc(S(=O)(=O)N(C)C)s2)s1` [Example 18, N-(5-{5-[(dimethylamino)sulfonyl]-2-thienyl}-4-methyl-1,3-thiazol-2-yl)acetamide], the IC50 in assay [1] worked out at 105 nM.

In the case of `CC(=O)Nc1nc(C)c(-c2csc(S(=O)(=O)NCCN(C)C)c2)s1` [Example 23, N-{5-[5-({[2-(dimethylamino)ethyl]amino}sulfonyl)-3-thienyl]-4-methyl-1,3-thiazol-2-yl}acetamide], the IC50 in assay [1] amounted to 28 nM; in assay [2], 480 nM.

Turning to `CC(=O)Nc1nc(C)c(-c2csc(S(=O)(=O)NCCN3CCOCC3)c2)s1` [Example 24, N-[4-methyl-5-(5-{[(2-morpholin-4-ylethyl)amino]sulfonyl}-3-thienyl)-1,3-thiazol-2-yl]acetamide], the IC50 in assay [1] was found to be 16 nM.

On to `CC(=O)Nc1nc(C)c(-c2csc(S(=O)(=O)N3CCNCC3)c2)s1` [Example 26, N-{4-methyl-5-[5-(piperazin-1-ylsulfonyl)-3-thienyl]-1,3-thiazol-2-yl}acetamide], for which, in assay [1], the IC50 turned out to be 67 nM.

Consider `CC(=O)Nc1nc(C)c(-c2csc(S(=O)(=O)NC3CCN(C)CC3)c2)s1` [Example 28, N-[4-methyl-5-(5-{[(1-methylpiperidin-4-yl)amino]sulfonyl}-3-thienyl)-1,3-thiazol-2-yl]acetamide], for which the IC50 in assay [1] is 78 nM.

Take `CC(=O)Nc1nc(C)c(-c2csc(S(=O)(=O)N3CCN(C)CC3)c2)s1` [Example 29, N-(4-methyl-5-{5-[(4-methylpiperazin-1-yl)sulfonyl]-3-thienyl}-1,3-thiazol-2-yl)acetamide]: the figures for the IC50 in assay [1] and in assay [2] were 28 nM and 460 nM, respectively. Also, the “% inhibition of Neutrophil recruitment” value in assay [3] was 28%.

As for `CC(=O)Nc1nc(C)c(-c2csc(S(=O)(=O)N3CCCC(O)C3)c2)s1` (stereo not drawn) [Example 48, N-(5-{5-[(3-hydroxypiperidin-1-yl)sulfonyl]-3-thienyl}-4-methyl-1,3-thiazol-2-yl)acetamide], the IC50 in assay [2] was found to be 150 nM.
